The text below walks through data of US20240299317A1, “Fenfluramine for Treatment of Conditions Associated with Spreading Depolarization” (ZOGENIX INTERNATIONAL LIMITED, priority 2021, published 2024).

Structures are written as SMILES.

Data set [1] deals with spreading depolarization in mouse brain slices. Kind of data set: KCl-induced spreading depolarization threshold in mouse brain slices. Format: cell-based. Particulars: for KCl concentration necessary to initiate spreading depolarization (SD threshold): test compound alone in ACSF bath. Here is the method: (§1) In brain slice studies normoxic SD is induced by briefly raising [K^+]o. An ischemic version of SD, the anoxic depolarization (AD), is induced by removing O2/glucose from the aCSF for about 10 min. Intrinsic optical signals (IOSs) represent change in the way tissue scatters light. Light transmittance (LT), essentially unscattered light, is imaged using a charge-coupled device (CCD) to measure second-by-second regional DLT during periods of 1 h or more. The front of the propagating SD or AD event is imaged as an elevated LT, caused by cell swelling. A negative voltage shift, the electrophysiological signature of SD, is simultaneously recorded extracellularly. Normoxic SD is typically the cortical occurrence in migraine, while an anoxic condition is more typical of ischemic attacks and stroke.
(§2) To determine the threshold for evoked spreading depolarization in mouse brain slices, mice (C57Bl6J, P30-50) were deeply anesthetized by ketamine/xylazine mix (i.p. 85 and […], respectively), cardiac perfused with cutting solution (110 mM N-Methyl-D-glucamine, 10 mM glucose, 6 mM magnesium sulfate, 3 mM KCl, 25 mM sodium bicarbonate, 1.25 mM sodium monophosphate, 0.2 mM calcium chloride, and 0.4 mM ascorbic acid equilibrated with 95% O2/5% CO2), and decapitated. The brain was rapidly extracted, cerebellum removed, forebrain hemisected, and 300 μm thick coronal slices were cut on a vibratome.
Slices were first incubated in the cutting solution at 37 C for 10 minutes and then transferred to artificial cerebrospinal fluid (“ACSF”: 126 mM sodium chloride, 10 mM glucose, 1 mM magnesium sulfate, 3 mM KCl, 25 mM sodium bicarbonate, 1.25 mM sodium monophosphate, 2 mM calcium chloride, and 0.4 mM ascorbic acid equilibrated with 95% O2/5% CO2).
(§3) In all in vitro experiments, a pair of slices were then transferred to a recording chamber continuously superfused with ACSF at […] 33-34° C. For pharmacological analysis, slices were pre-incubated in the recording chamber with test compound for at least for 20 minutes. Slow tissue depolarizations (SD) were detected by DC potential shift or imaging of intrinsic optical signals (IOS) in the brain slice. DC potential were recorded using glass pipette electrodes containing ACSF (2-3MO). Signals were amplified with a DC amplifier (MultiClamp 700B), digitized (Digidata 1550B) and analyzed with the Clampfit program ([…]). IOS were detected by acquiring images of brain slices with a CMOS camera (Hamamatsu ORCA). Images were acquired at 0.2-0.5 Hz and analyzed with imageJ software.
First, by incrementally elevating the KCl concentration of bath ACSF every 5 minutes (initial starting concentration of 6 mM, then elevated by +1 mM at 5-minute intervals). The KCl concentration that triggered the first SD was considered as the SD threshold. In experiments using the test drug (fenfluramine), the drug was added to the solution before the KCl challenge.

Data set [2] relates to spreading depolarization in cortical slices. Kind of data set: Oxygen/glucose deprivation (OGD) model of spreading depolarization in brain slices. It is filed as cell-based, mouse. Particulars: for time to onset of spreading depolarization: treatment vs non-treatment. How it is done:
as §1
as §2, with “vibratome. […]” for “vibratome.”
as §3, with “For pharmacological analysis, slices were pre-incubated in the recording chamber with test compound for at least for 20 minutes.” left out, “software. […]” for “software.”

In data set [3] the test system is GABA spontaneous inhibitory postsynaptic currents. Nature of the data set: GABA spontaneous inhibitory postsynaptic currents (sIPSCs). The note with it: compound alone. It is filed as cell-based.
For data set [4] the following is noted: cited from earlier work.
The next data set relates to Sig1R. Particulars: with (+)-SKF-10,047; cited from earlier work.
Data set [5] has as its target Sig1 receptor [Sig1R]/binding immunoglobulin protein (BiP) (Homo sapiens, UniProt Q99720). Particulars: with PRE-084; cited from earlier work.

Sig1 receptor [Sig1R]/binding immunoglobulin protein (BiP), sequence (Q99720 whole entry): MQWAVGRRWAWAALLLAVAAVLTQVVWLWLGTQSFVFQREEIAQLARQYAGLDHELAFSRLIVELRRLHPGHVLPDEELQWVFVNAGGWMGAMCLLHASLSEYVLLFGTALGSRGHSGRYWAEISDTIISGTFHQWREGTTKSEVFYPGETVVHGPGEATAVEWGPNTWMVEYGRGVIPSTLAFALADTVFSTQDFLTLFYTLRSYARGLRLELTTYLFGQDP

Turning to `CN1CC2c3ccccc3Oc3ccc(Cl)cc3C2C1` (stereo not drawn) [asenapine], in data set [1] (KCl model, asenapine added to fenfluramine), the “effect of multi-5-HT receptor antagonist on protective effects of fenfluramine” value is on record as “did not affect”.
With `COc1ccc2c(c1)[C@]13CCCC[C@@H]1[C@H](C2)N(C)CC3` [dextromethorphan], the “KCl concentration necessary to initiate spreading depolarization (SD threshold)” value in data set [1] (KCl model) is given as “raising the spreading depolarization threshold”.
Regarding `CCNC(C)Cc1cccc(C(F)(F)F)c1` (stereo not drawn) [fenfluramine, 3-trifluoromethyl-N-ethylamphetamine], the “time to onset of spreading depolarization” value in data set [2] (0% oxygen and 0 mM glucose) was “non-significant difference”; in data set [2] (0% oxygen and 2 mM glucose), “significant increase in time to onset”. In addition, the “effect on SD under anoxic conditions (AD)” value in data set [2] (anoxic conditions) was “positive effect”. Besides, the “GABA spontaneous inhibitory postsynaptic currents” value in data set [3] is on record as “increase”. Moreover, the “protective effect of fenfluramine with addition of a 5-HT4 antagonist” value in data set [1] (KCl model, 5-HT4 antagonist added) is on record as “only slightly diminished”. Further, the “KCl concentration necessary to initiate spreading depolarization (SD threshold)” value in data set [1] (KCl model) was “raising the KCl concentration necessary to initiate spreading depolarization”. Also, the “additivity or synergism on spreading depolarization threshold” value in data set [1] (fenfluramine with added serotonin) is given as “lack of additivity or synergism”. For the same molecule, the “fenfluramine's effects on spreading depolarization under blockade of the GABA receptors” value in data set [1] (with blockade of the GABA receptors) is “does not abolish”. The “cardiac adverse effects with chronic use” value in data set [4] (chronic use at doses of 60 to 120 mg, some patients) is “cardiac valve abnormalities or pulmonary hypertension”. The anticonvulsant/antiseizure activity result in data set [4] (low dose, Dravet Syndrome and Lennox Gastaut syndrome) was “anticonvulsant/antiseizure activity”. The “(+)-SKF-10,047-induced increase in the twitch contraction amplitude” value in the data set with Sig1R is “potentiated”. The “Sig1R/BiP dissociation induced by the Sig1R agonist PRE-084” value in data set [5] is given as “potentiated”.
Take `NCCc1c[nH]c2ccc(O)cc12` [serotonin, 5-hydroxytryptamine]: in data set [3], the “GABA spontaneous inhibitory postsynaptic currents” value is “increase”.
